Target: T1, budding yeast cohesin tetramer (Smc1, Smc3, Scc1/Mcd1, Scc3) with Scc2-Scc4 loader complex (Saccharomyces cerevisiae, UniProt P32908+P47037)
T1 construct: tetramer overexpressed in S. cerevisiae W303-1a; Smc1-3xStrepII, Mcd1-8xHis-3xHA; loader Scc2-3xmyc-3xStrepII with Scc4; tags kept; with Sister chromatid cohesion protein 1; Cohesin subunit SCC3; Sister chromatid cohesion protein 2; MAU2 chromatid cohesion factor homolog
Experiment: [gamma-32P]ATP hydrolysis, thin-layer chromatography
Type: biochemical
Conditions: 30 nM cohesin, 60 nM Scc2/4, 0.2 nM lambda-DNA, 400 uM ATP, 0.5 mM MgCl2, 20 mM NaCl, pH 7.0, 29 C; labelled compound

Structure (SMILES): Nc1ncnc2c1ncn2[C@@H]1O[C@H](COP(=O)(O)OP(=O)(O)OP(=O)(O)O)[C@@H](O)[C@H]1O [ATP]
- [gamma-32P]ATP hydrolysis, thin-layer chromatography: our purified Scc2-Scc4 complex was able to stimulate cohesin ATPase activity

From publication PMC6881171, “A conserved ATP- and Scc2/4-dependent activity for cohesin in tethering DNA molecules” (Science Advances, 2019)
